Where two headings read alike, the source gives them in different places.
Columns and labels:
MDA-MB-231 cells [1] = assay: MTT antiproliferative assay, MDA-MB-231; assay type: cell-based, human; conditions: exposure 72 h, read-out: 50% inhibitory concentration (IC50) MDA-MB-231
Protocol: (§1) The in vitro antiproliferative activity of novel organic compounds HL^1–HL^4 and corresponding copper(II) complexes 1–4 was tested in the breast cancer cell line MDA-MB-231, hepatocellular carcinoma cell line LM3, and human embryonic kidney cell line HEK293 and then compared to those of the previously reported paullones HL^5–HL^7 and copper(II) complexes 5–7,[39],[44] as well as latonduines HL^8–HL^11 and copper(II) complexes 8–11.[34] […] The in vitro anticancer activity was determined by the colorimetric MTT assay with an exposure time of 72 h.
(§2) Human breast adenocarcinoma MDA-MB-231 and human embryonic kidney HEK293 cells were obtained from ATCC. Hepatocellular carcinoma LM3 cells were a kind gift of Prof. Kan Man Hui (Duke-NUS Medical School). All cells were cultured in DMEM medium containing 10% FBS in tissue culture 75 cm^2 flasks (BDBiosciences, Singapore) at 37 °C in a humidified atmosphere of 95% air and 5% CO2. All stock solutions were prepared in DMSO. The amount of actual Cu concentration in stock solutions was verified by ICP-OES.
(§3) The cytotoxicity of the compounds was determined by the colorimetric MTT assay. The cells were harvested from culture flasks by trypsinization and seeded into CELLSTAR 96-well microculture plates at the seeding density of 6000 cells per well (6 × 10^4 cells/mL). […] Optical densities were measured at 570 nm using the BioTekH1 Synergy microplate reader. […]

LM3 cells [2] = assay: MTT antiproliferative assay, LM3; assay type: cell-based; conditions: exposure 72 h, read-out: 50% inhibitory concentration (IC50) LM3
Protocol: as §1, §2, §3

HEK293 cells [3] = assay: MTT assay, noncancerous HEK293; assay type: cell-based, human; conditions: exposure 72 h, read-out: 50% inhibitory concentration (IC50) HEK293
Protocol: as §1, §2, §3

[4] = Solution stability (UV-vis, ESI-MS, 1H NMR); assay type: physicochemical; conditions: aqueous solution containing 1% DMSO, 72 h
Protocol: First, UV–vis kinetic studies were performed with the ligands HL^2 and HL^4 (Figure S30) and the copper(II) complexes 1–4 in aqueous solutions containing 1% DMSO (Figures S31 and 32). Additionally, the stability of the copper(II) complex 4 was also measured in phosphate-buffered saline (PBS) (pH ∼ 7.4) containing 3% DMSO over 24 h. […] Additional peaks which could be assigned to the dissociated ligand or any its fragments due to a hypothetical ligand degradation have not been registered. In addition to UV–vis data, the stability and purity of complex 4 were tested by analytical HPLC-HR ESI MS using methanol or acetonitrile with 0.1% formic acid as the eluent over 10 min. A single peak at around 1 min corresponding to [Cu^II(L^4)]^+ (found m/z = 506.9939 (Figure S23), calcd m/z for C23H17BrCuN5 507.0063) was registered in agreement with other experiments. In addition, the stability of HL^4 in 1:1 DMSO-d6/D2O at 25 °C was monitored by ^1H NMR spectroscopy. […] In addition, solution stability of the lead complex 4 was studied in ethanol-cell culture medium (1:1 v/v) by monitoring the electronic absorption spectra in the visible region within a time period of 8 h (Figure S34, Supporting Information).

MDA-MB-231 cells [5] = tested on: MDA-MB-231 cells; parameters: method as in PMID 34995063; conditions: MTT assay, exposure 72 h; read-out: 50% inhibitory concentration (IC50) MDA-MB-231; cited from earlier work
LM3 cells [6] = tested on: LM3 cells; parameters: method as in PMID 34995063; conditions: MTT assay, exposure 72 h; read-out: 50% inhibitory concentration (IC50) LM3; cited from earlier work
HEK293 cells [7] = tested on: HEK293 cells; parameters: method as in doi:10.1021/acs.organomet.9b00229; conditions: MTT assay, exposure 72 h; read-out: 50% inhibitory concentration (IC50) HEK293; cited from earlier work

IC50 (MDA-MB-231 cells [1]) | SMILES | IC50 (LM3 cells [2]) | IC50 (HEK293 cells [3]) | stability by UV–vis absorption spectra [4] | IC50 (MDA-MB-231 cells [5]) | IC50 (LM3 cells [6]) | IC50 (HEK293 cells [7])
1.5 ± 0.1 µM | C(=N\N=C1/NCc2ccccc2-c2[nH]c3ccccc3c21)/c1ccccn1 [HL^1] | 1.4 ± 0.2 µM | 2 ± 0.1 µM | no changes in the UV–vis absorption spectra over 72 h |  |  | 
 | N.N.[Cl][Pt][Cl] [cisplatin] |  |  |  | 21 ± 5 µM | 10 ± 3 µM | 3.4 ± 1.1 µM
